Laboratory results reported in paper PMC5863496, “Mesobuthus Venom-Derived Antimicrobial Peptides Possess Intrinsic Multifunctionality and Differential Potential as Drugs” (Frontiers in Microbiology, 2018).
Ends that are not written are not given here.

How the values were obtained:
Type in all cases: cell-based
[1] = test system: Salmonella enterica ATCC 14028; experiment: Inhibition-zone assay (CL); settings: SE ATCC 14028, N.A. = no activity at 0.8 nmol peptide each well
How it was run: (§1)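 Bacteria (~2 × 10^6 cells/ml) were seeded in 0.8% soft-agar medium (LB, Nutrient Broth or GYM) and grown at 30 or 37°C. Three peptide doses were placed in separate 2 mm wells, and inhibition zones were measured after overnight incubation. CL was calculated from the slope and intercept of a d^2 versus log n plot.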

[2] = test system: Streptomyces griseus NBRC 13350; experiment: Inhibition-zone assay (CL); settings: SG NBRC 13350, N.A. = no activity at 0.8 nmol peptide each well
How it was run: as §1

Escherichia coli TOP10 = experiment: Inhibition-zone assay (CL); settings: EC TOP10, N.A. = no activity at 0.8 nmol peptide each well
How it was run: as §1

[3] = test system: Staphylococcus aureus J706; experiment: Inhibition-zone assay (CL); settings: SA J706, N.A. = no activity at 0.8 nmol peptide each well
How it was run: as §1

[4] = test system: Staphylococcus aureus J710; experiment: Inhibition-zone assay (CL); settings: SA J710, N.A. = no activity at 0.8 nmol peptide each well
How it was run: as §1

[5] = test system: fresh erythrocytes from the ICR mice; experiment: Hemolytic assay, mouse erythrocytes; settings: mouse blood cells, 30 min, 37°C, A570
Method: Hemolytic activity of peptides against fresh erythrocytes from the ICR mice (Mus musculus), the lizards (Eremias multiocellata) or the pigeons (Columba livia domestica) was assayed according to the standard method (Zhu et al., [2012a]). An aliquot of freshly prepared venom was diluted with 0.9% NaCl to a protein concentration of ~5 mg/mL for use. The percentage of hemolysis is determined as (Apep-Ablank)/(Atot-Ablank) × 100, in which “A” represents absorbance measured at 570 nm. Ablank and Aprep were evaluated in the absence or presence of the venom or peptides. 100% hemolysis (Atot) was obtained in the presence of 1% Triton X-100.

[6] = test system: Pseudomonas aeruginosa 11082616; experiment: Inhibition-zone assay (CL); settings: PA 11082616, N.A. = no activity at 0.8 nmol peptide each well
How it was run: as §1

[7] = test system: Pseudomonas aeruginosa DH; experiment: Inhibition-zone assay (CL); settings: PA DH, N.A. = no activity at 0.8 nmol peptide each well
How it was run: as §1

[8] = test system: Pseudomonas aeruginosa 11092618; experiment: Inhibition-zone assay (CL); settings: PA 11092618, N.A. = no activity at 0.8 nmol peptide each well
How it was run: as §1

[9] = test system: Pseudomonas aeruginosa 11092304; experiment: Inhibition-zone assay (CL); settings: PA 11092304, N.A. = no activity at 0.8 nmol peptide each well
How it was run: as §1

[10] = test system: Alcaligenes faecalis CGMCC 1.1837; experiment: Inhibition-zone assay (CL); settings: AF CGMCC 1.1837, N.A. = no activity at 0.8 nmol peptide each well
How it was run: as §1

Candida albicans JX1009 = experiment: Inhibition-zone assay (CL); settings: CA JX1009, 28°C, N.A. = no activity at 0.8 nmol peptide each well
Candida albicans 4277 = experiment: Inhibition-zone assay (CL); settings: CA 4277, 28°C, N.A. = no activity at 0.8 nmol peptide each well
Candida albicans SZ56 = experiment: Inhibition-zone assay (CL); settings: CA SZ56, 28°C, N.A. = no activity at 0.8 nmol peptide each well
[11] = test system: Saccharomyces cerevisiae CCTCC AY 92003; experiment: Inhibition-zone assay (CL); settings: SC CCTCC AY 92003, 28°C, N.A. = no activity at 0.8 nmol peptide each well
[12] = test system: Geotrichum candidum CCTCC AY 93038; experiment: Inhibition-zone assay (CL); settings: GC CCTCC AY 93038, 28°C, N.A. = no activity at 0.8 nmol peptide each well
Candida albicans 4257 = experiment: Inhibition-zone assay (CL); settings: CA 4257, 28°C, N.A. = no activity at 0.8 nmol peptide each well
Candida albicans 4247 = experiment: Inhibition-zone assay (CL); settings: CA 4247, 28°C, N.A. = no activity at 0.8 nmol peptide each well
Candida albicans JX1016 = experiment: Inhibition-zone assay (CL); settings: CA JX1016, 28°C, N.A. = no activity at 0.8 nmol peptide each well
Candida albicans JX1017 = experiment: Inhibition-zone assay (CL); settings: CA JX1017, 28°C, N.A. = no activity at 0.8 nmol peptide each well
Candida albicans SZ72 = experiment: Inhibition-zone assay (CL); settings: CA SZ72, 28°C, N.A. = no activity at 0.8 nmol peptide each well
[13] = peptide 3.125 μM, mean ± S.D., triplicate

Molecule: CC[C@H](C)[C@H](NC(=O)CN)C(=O)NCC(=O)N[C@@H](C)C(=O)N[C@H](C(=O)N[C@@H](CC(C)C)C(=O)N[C@@H](CCCCN)C(=O)N[C@H](C(=O)N[C@@H](CC(C)C)C(=O)N[C@H](C(=O)N[C@H](C(=O)NCC(=O)N[C@@H](CC(C)C)C(=O)N1CCC[C@H]1C(=O)N[C@@H](C)C(=O)N[C@@H](CC(C)C)C(=O)N[C@H](C(=O)N[C@@H](CO)C(=O)N[C@@H](Cc1c[nH]c2ccccc12)C(=O)N[C@H](C(=O)N[C@@H](CCCCN)C(=O)N[C@@H](CCCNC(=N)N)C(=O)N[C@@H](CCCCN)C(=O)N[C@@H](CCCNC(=N)N)C(=O)N[C@@H](CCC(N)=O)C(=O)N[C@@H](CCC(N)=O)C(N)=O)[C@@H](C)CC)[C@@H](C)CC)[C@@H](C)O)[C@@H](C)O)C(C)C)C(C)C [Melittin, reference compound]
- Lethal concentration (CL) [1]: 24.74 µM
- Lethal concentration (CL) [2]: 28.79 µM
- Lethal concentration (CL) (Escherichia coli TOP10): 13.80 µM
- Lethal concentration (CL) [3]: 16.41 µM
- Lethal concentration (CL) [4]: 8.98 µM
- hemolysis [5, 13]: complete hemolysis

Molecule: FFGHLFKLATKIIPSFFRRKNQ [MAC-22]
- Lethal concentration (CL) [6]: 19.08 µM
- Lethal concentration (CL) [7]: 11.13 µM
- Lethal concentration (CL) [1]: 16.37 µM
- Lethal concentration (CL) [8]: 19.08 µM
- Lethal concentration (CL) [9]: 24.82 µM
- Lethal concentration (CL) [10]: 11.13 µM

Molecule: FFGHLFKLATKIIPSLFQ [MUC-18, reference compound]
- Lethal concentration (CL) [6]: 31.40 µM
- Lethal concentration (CL) [1]: 35.64 µM
- Lethal concentration (CL) [2]: 31.40 µM
- Lethal concentration (CL) [8]: 31.40 µM
- Lethal concentration (CL) [9]: 31.40 µM
- Lethal concentration (CL) [3]: 4.86 µM
- Lethal concentration (CL) [4]: 5.16 µM
- Lethal concentration (CL) [10]: 18.64 µM

Molecule: FFGHLFKLATKIIPSLFQRKKE [MUC-22]
- Lethal concentration (CL) [6]: 10.02 µM
- Lethal concentration (CL) [7]: 9.93 µM
- Lethal concentration (CL) [1]: 14.73 µM
- Lethal concentration (CL) [8]: 6.10 µM
- Lethal concentration (CL) [9]: 10.02 µM
- Lethal concentration (CL) [10]: 11.65 µM

Molecule: FLFSLIPSAISGLINAFK-NH2 [MeuFSPL-2]
- Lethal concentration (CL) (Candida albicans JX1009): 11.58 µM
- Lethal concentration (CL) (Candida albicans 4277): 7.06 µM
- Lethal concentration (CL) (Candida albicans SZ56): 14.80 µM
- Lethal concentration (CL) [11]: 11.62 µM
- Lethal concentration (CL) [12]: 24.94 µM
- Lethal concentration (CL) (Candida albicans 4257): 12.72 µM
- Lethal concentration (CL) (Candida albicans 4247): 7.02 µM
- Lethal concentration (CL) (Candida albicans JX1016): 23.35 µM
- Lethal concentration (CL) (Candida albicans JX1017): 11.10 µM
- Lethal concentration (CL) (Candida albicans SZ72): 12.72 µM
- Lethal concentration (CL) (Escherichia coli TOP10): 11.58 µM
- Lethal concentration (CL) [3]: 7.04 µM
- Lethal concentration (CL) [4]: 7.04 µM

Molecule: FLFSLIPSAISGLISAFK-NH2 [MeuFSPL-1]
- Lethal concentration (CL) (Candida albicans JX1009): 15.55 µM
- Lethal concentration (CL) (Candida albicans 4277): 6.25 µM
- Lethal concentration (CL) (Candida albicans SZ56): 21.82 µM
- Lethal concentration (CL) [11]: 25.00 µM
- Lethal concentration (CL) [12]: 17.70 µM
- Lethal concentration (CL) (Candida albicans 4257): 14.64 µM
- Lethal concentration (CL) [2]: 6.81 µM
- Lethal concentration (CL) (Candida albicans 4247): 15.28 µM
- Lethal concentration (CL) (Candida albicans JX1016): 28.38 µM
- Lethal concentration (CL) (Candida albicans JX1017): 11.72 µM
- Lethal concentration (CL) (Candida albicans SZ72): 21.82 µM
- Lethal concentration (CL) (Escherichia coli TOP10): 9.94 µM
- Lethal concentration (CL) [3]: 10.92 µM
- Lethal concentration (CL) [4]: 10.92 µM
- hemolysis [5, 13]: 61 ± 2.5%
- hemolysis ([5]; peptide 6.25 μM): ~100%

Molecule: FLFSLIPSAISGLISAFKGRRKRDLN-NH2 [MarMEL]
- Lethal concentration (CL) [6]: 8.41 µM
- Lethal concentration (CL) [7]: 14.29 µM
- Lethal concentration (CL) [1]: 1.61 µM
- Lethal concentration (CL) (Candida albicans JX1009): 6.49 µM
- Lethal concentration (CL) (Candida albicans 4277): 7.04 µM
- Lethal concentration (CL) (Candida albicans SZ56): 8.49 µM
- Lethal concentration (CL) [11]: 7.72 µM
- Lethal concentration (CL) [12]: 6.34 µM
- Lethal concentration (CL) (Candida albicans 4257): 6.84 µM
- Lethal concentration (CL) [2]: 5.19 µM
- Lethal concentration (CL) (Candida albicans 4247): 7.04 µM
- Lethal concentration (CL) (Candida albicans JX1016): 14.29 µM
- Lethal concentration (CL) [8]: 8.41 µM
- Lethal concentration (CL) (Candida albicans JX1017): 4.07 µM
- Lethal concentration (CL) (Candida albicans SZ72): 6.70 µM
- Lethal concentration (CL) (Escherichia coli TOP10): 4.10 µM
- Lethal concentration (CL) [9]: 24.95 µM
- Lethal concentration (CL) [3]: 8.41 µM
- Lethal concentration (CL) [4]: 8.41 µM
- hemolysis [5, 13]: 66 ± 1.2%
- hemolysis ([5]; peptide 6.25 μM): ~100%
